{"source": "patent US20230085307A1", "about": "“PYRIDAZINONE COMPOUND AND HERBICIDE” (NISSAN CHEMICAL CORPORATION, priority 2019, published 2023)", "key": {"late watergrass": {"tested_on": "late watergrass", "assay": "Test Example 1: herbicidal activity, application before weed generation under submerged conditions (Table 16, symbol A)", "type": "in vivo, late watergrass (Echinochloa oryzicola)", "conditions": "amount of applied herbicide 320 g/ha", "procedure,_shortened": "(§1)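 Emulsion formulation, water-diluted to set dose, was put onto the flooded surface (4 cm depth, alluvial soil) the same day weeds were sown and 2.5-leaf rice transplanted. After 3 weeks at 25-30 °C under glass, each species was rated 0 (≤5% kill) to 5 (≥90% kill).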"}, "Japanese bulrush": {"tested_on": "Japanese bulrush", "assay": "Test Example 1: herbicidal activity, application before weed generation under submerged conditions (Table 16, symbol B)", "type": "in vivo, Japanese bulrush (Schoenoplectus juncoides)", "conditions": "amount of applied herbicide 320 g/ha", "procedure,_shortened": "as §1"}, "oval-leafed pondweed": {"tested_on": "oval-leafed pondweed", "assay": "Test Example 1: herbicidal activity, application before weed generation under submerged conditions (Table 16, symbol C)", "type": "in vivo, oval-leafed pondweed (Monochoria vaginalis)", "conditions": "amount of applied herbicide 320 g/ha", "procedure,_shortened": "as §1"}, "barnyard grass [1]": {"tested_on": "barnyard grass", "assay": "Test Example 3: herbicidal effect by foliage application, Wagner pot (Table 18, symbol H)", "type": "in vivo, barnyard grass (Echinochloa crus-galli)", "procedure,_shortened": "(§2)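 Plants were sown in alluvial soil held under 0.1–0.5 cm standing water and grown 14 days in a greenhouse at 25–30 °C. An emulsifiable formulation, water-diluted to the set dose, was then sprayed onto the foliage, and effects were scored three weeks later using previously defined criteria.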"}, "Chinese sprangletop": {"tested_on": "Chinese sprangletop", "assay": "Test Example 3: herbicidal effect by foliage application, Wagner pot (Table 18, symbol D)", "type": "in vivo, chinese sprangletop (Leptochloa chinensis)", "procedure,_shortened": "as §2"}, "rice flat sedge": {"tested_on": "rice flat sedge", "assay": "Test Example 3: herbicidal effect by foliage application, Wagner pot (Table 18, symbol E)", "type": "in vivo, rice flat sedge (Cyperus iria)", "procedure,_shortened": "as §2"}, "southern crabgrass": {"tested_on": "southern crabgrass", "assay": "Test Example 5: herbicidal effect by foliage application, plastic box (Table 20, symbol F)", "type": "in vivo, southern crabgrass (Digitaria ciliaris)", "procedure,_shortened": "(§3)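 Sow seeds spot-wise in sterilized diluvial soil; cover with ~1.5 cm soil. Grow 14 days in greenhouse, 25° C. to 30° C. Spray foliage with emulsion diluted to predetermined amount. Rate effect after 3 weeks.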"}, "green foxtail": {"tested_on": "green foxtail", "assay": "Test Example 5: herbicidal effect by foliage application, plastic box (Table 20, symbol G)", "type": "in vivo, green foxtail (Setaria viridis)", "procedure,_shortened": "as §3"}, "barnyard grass [2]": {"tested_on": "barnyard grass", "assay": "Test Example 5: herbicidal effect by foliage application, plastic box (Table 20, symbol H)", "type": "in vivo, barnyard grass (Echinochloa crus-galli)", "procedure,_shortened": "as §3"}, "wild oat": {"tested_on": "wild oat", "assay": "Test Example 5: herbicidal effect by foliage application, plastic box (Table 20, symbol I)", "type": "in vivo, wild oat (Avena fatua)", "procedure,_shortened": "as §3"}, "blackgrass": {"tested_on": "blackgrass", "assay": "Test Example 5: herbicidal effect by foliage application, plastic box (Table 20, symbol J)", "type": "in vivo, blackgrass (Alopecurus myosuroides)", "procedure,_shortened": "as §3"}, "Italian ryegrass": {"tested_on": "Italian ryegrass", "assay": "Test Example 5: herbicidal effect by foliage application, plastic box (Table 20, symbol K)", "type": "in vivo, Italian ryegrass (Lolium multiflorum)", "procedure,_shortened": "as §3"}, "windgrass": {"tested_on": "windgrass", "assay": "Test Example 5: herbicidal effect by foliage application, plastic box (Table 20, symbol L)", "type": "in vivo, windgrass (Apera spica-venti)", "procedure,_shortened": "as §3"}, "velvetleaf": {"tested_on": "velvetleaf", "assay": "Test Example 5: herbicidal effect by foliage application, plastic box (Table 20, symbol M)", "type": "in vivo, velvetleaf (Abutilon theophrasti)", "procedure,_shortened": "as §3"}, "redroot pigweed": {"tested_on": "redroot pigweed", "assay": "Test Example 5: herbicidal effect by foliage application, plastic box (Table 20, symbol N)", "type": "in vivo, redroot pigweed (Amaranthus retroflexus)", "procedure,_shortened": "as §3"}, "lambsquarters": {"tested_on": "lambsquarters", "assay": "Test Example 5: herbicidal effect by foliage application, plastic box (Table 20, symbol O)", "type": "in vivo, lambsquarters (Chenopodium album)", "procedure,_shortened": "as §3"}, "chickweed": {"tested_on": "chickweed", "assay": "Test Example 5: herbicidal effect by foliage application, plastic box (Table 20, symbol P)", "type": "in vivo, common chickweed (Stellaria media)", "procedure,_shortened": "as §3"}, "persian speedwell": {"tested_on": "persian speedwell", "assay": "Test Example 5: herbicidal effect by foliage application, plastic box (Table 20, symbol R)", "type": "in vivo, Persian speedwell (Veronica persica)", "procedure,_shortened": "as §3"}, "[3]": {"conditions": "amount of applied herbicide 320 g/ha"}, "[4]": {"conditions": "foliage application, 320 g/ha, three weeks after application"}, "[5]": {"conditions": "amount of applied herbicide 320 g/ha, foliage application after 14-day growth, evaluated three weeks after application"}}, "data": [{"molecule": "COc1ccccc1-c1sc2cc(F)ccc2c1-c1c(OCC(=O)c2ccccc2)c(C)nn(C)c1=O", "note": "[3-030]", "values": [{"measurement": "Herbicidal effect, A: late watergrass", "setting": "late watergrass", "result": "2 (Herbicidal rate of 20% or more and less than 40%)"}, {"measurement": "Herbicidal effect, B: Japanese bulrush", "setting": "Japanese bulrush", "result": "0 (Herbicidal rate of 5% or less (almost no effect))"}, {"measurement": "Herbicidal effect, C: oval-leafed pondweed", "setting": "oval-leafed pondweed", "result": "3 (Herbicidal rate of 40% or more and less than 70%)"}, {"measurement": "herbicidal effect on H: barnyard grass", "setting": "barnyard grass [1]; [3]", "result": "4 (Herbicidal rate of 70% or more and less than 90%)"}, {"measurement": "herbicidal effect on D: Chinese sprangletop", "setting": "Chinese sprangletop; [3]", "result": "2 (Herbicidal rate of 20% or more and less than 40%)"}, {"measurement": "herbicidal effect on E: rice flat sedge", "setting": "rice flat sedge; [3]", "result": "0 (Herbicidal rate of 5% or less (almost no effect))"}, {"measurement": "F: southern crabgrass, herbicidal effect grade", "setting": "southern crabgrass; [4]", "result": "0 (Herbicidal rate of 5% or less (almost no effect))"}, {"measurement": "G: green foxtail, herbicidal effect grade", "setting": "green foxtail; [4]", "result": "1 (Herbicidal rate of 5% or more and less than 20%)"}, {"measurement": "H: barnyard grass, herbicidal effect grade", "setting": "barnyard grass [2]; [4]", "result": "0 (Herbicidal rate of 5% or less (almost no effect))"}, {"measurement": "I: wild oat, herbicidal effect grade", "setting": "wild oat; [4]", "result": "0 (Herbicidal rate of 5% or less (almost no effect))"}, {"measurement": "J: blackgrass, herbicidal effect grade", "setting": "blackgrass; [4]", "result": "3 (Herbicidal rate of 40% or more and less than 70%)"}, {"measurement": "K: Italian ryegrass, herbicidal effect grade", "setting": "Italian ryegrass; [4]", "result": "0 (Herbicidal rate of 5% or less (almost no effect))"}, {"measurement": "L: windgrass, herbicidal effect grade", "setting": "windgrass; [4]", "result": "0 (Herbicidal rate of 5% or less (almost no effect))"}, {"measurement": "M: velvetleaf, herbicidal effect grade", "setting": "velvetleaf; [4]", "result": "3 (Herbicidal rate of 40% or more and less than 70%)"}, {"measurement": "N: redroot pigweed, herbicidal effect grade", "setting": "redroot pigweed; [4]", "result": "3 (Herbicidal rate of 40% or more and less than 70%)"}, {"measurement": "O: lambsquarters, herbicidal effect grade", "setting": "lambsquarters; [4]", "result": "1 (Herbicidal rate of 5% or more and less than 20%)"}, {"measurement": "P: chickweed, herbicidal effect grade", "setting": "chickweed; [4]", "result": "3 (Herbicidal rate of 40% or more and less than 70%)"}, {"measurement": "R: persian speedwell, herbicidal effect grade", "setting": "persian speedwell; [4]", "result": "0 (Herbicidal rate of 5% or less (almost no effect))"}]}, {"molecule": "Cc1nn(C)c(=O)c(-c2c(-c3cccc4c3OCC4)sc3c(Cl)cccc23)c1O", "note": "[4-098]", "values": [{"measurement": "Herbicidal effect, A: late watergrass", "setting": "late watergrass", "result": "3 (Herbicidal rate of 40% or more and less than 70%)"}, {"measurement": "Herbicidal effect, B: Japanese bulrush", "setting": "Japanese bulrush", "result": "0 (Herbicidal rate of 5% or less (almost no effect))"}, {"measurement": "Herbicidal effect, C: oval-leafed pondweed", "setting": "oval-leafed pondweed", "result": "0 (Herbicidal rate of 5% or less (almost no effect))"}, {"measurement": "herbicidal effect on barnyard grass (H)", "setting": "barnyard grass [1]; 320 g/ha", "result": "4 (Herbicidal rate of 70% or more and less than 90%)"}, {"measurement": "herbicidal effect on Chinese sprangletop (D)", "setting": "Chinese sprangletop; 320 g/ha", "result": "3 (Herbicidal rate of 40% or more and less than 70%)"}, {"measurement": "herbicidal effect on rice flat sedge (E)", "setting": "rice flat sedge; 320 g/ha", "result": "3 (Herbicidal rate of 40% or more and less than 70%)"}, {"measurement": "Herbicidal effect by foliage application, F: southern crabgrass", "setting": "southern crabgrass; [5]", "result": "3 (Herbicidal rate of 40% or more and less than 70%)"}, {"measurement": "Herbicidal effect by foliage application, G: green foxtail", "setting": "green foxtail; [5]", "result": "3 (Herbicidal rate of 40% or more and less than 70%)"}, {"measurement": "Herbicidal effect by foliage application, H: barnyard grass", "setting": "barnyard grass [2]; [5]", "result": "1 (Herbicidal rate of 5% or more and less than 20%)"}, {"measurement": "Herbicidal effect by foliage application, I: wild oat", "setting": "wild oat; [5]", "result": "0 (Herbicidal rate of 5% or less (almost no effect))"}, {"measurement": "Herbicidal effect by foliage application, J: blackgrass", "setting": "blackgrass; [5]", "result": "0 (Herbicidal rate of 5% or less (almost no effect))"}, {"measurement": "Herbicidal effect by foliage application, K: Italian ryegrass", "setting": "Italian ryegrass; [5]", "result": "0 (Herbicidal rate of 5% or less (almost no effect))"}, {"measurement": "Herbicidal effect by foliage application, L: windgrass", "setting": "windgrass; [5]", "result": "2 (Herbicidal rate of 20% or more and less than 40%)"}, {"measurement": "Herbicidal effect by foliage application, M: velvetleaf", "setting": "velvetleaf; [5]", "result": "3 (Herbicidal rate of 40% or more and less than 70%)"}, {"measurement": "Herbicidal effect by foliage application, N: redroot pigweed", "setting": "redroot pigweed; [5]", "result": "3 (Herbicidal rate of 40% or more and less than 70%)"}, {"measurement": "Herbicidal effect by foliage application, O: lambsquarters", "setting": "lambsquarters; [5]", "result": "3 (Herbicidal rate of 40% or more and less than 70%)"}, {"measurement": "Herbicidal effect by foliage application, P: chickweed", "setting": "chickweed; [5]", "result": "5 (Herbicidal rate of 90% or more (almost completely withered))"}, {"measurement": "Herbicidal effect by foliage application, R: persian speedwell", "setting": "persian speedwell; [5]", "result": "5 (Herbicidal rate of 90% or more (almost completely withered))"}]}]}
